Experimental data reported in patent US10882835B2 (Imago Biosciences, Inc., priority 2013, dated 2021).

Experiments:
[1] = target: KDM1A (LSD1) (Homo sapiens (Human), UniProt O60341); experiment: 10-dose IC50 fluorescence coupling enzyme assay, LSD1 demethylase activity on histone H3(1-21)K4me2 peptide (HRP/Amplex Red); format: biochemical; settings: 10 μM histone H3(1-21)K4me2 peptide substrate
[2] = Metabolic stability in murine liver microsomes; format: in vitro ADME; settings: mouse liver microsomes, 2 μM compound, NADPH
Method: The metabolic stability of compounds disclosed herein in pooled human liver microsomes (HLM) and pooled male mouse liver microsomes (MMLM) was determined according to the following protocol, in which the concentrations of compounds in reaction systems were evaluated by LC/MS/MS for estimating the stability in liver microsomes.
Pooled human liver microsomes (HMMCPL; PL050B) and pooled male mouse liver microsomes (MSMCPL; MS033) were purchased from CellzDirect (Invitrogen). Microsomes were stored at −80 C prior to use.
A master solution was prepared containing microsome (stock concentration 5 mg/mL, volume 50 μL, final concentration 0.5 mg/mL), MgCl2 solution (stock concentration 50 mM, volume 50 μL, final concentration 5 mM), phosphate buffer (stock concentration 200 mM, volume 250 μL, final concentration 100 mM), and water (volume […]. Five μL of 200 μM test compounds or control solution (control compound: verapamil) was then added. The final concentration of test compounds or verapamil in the reaction system was 2 μM. The mixture was pre-warmed at 37 C for 5 min.
The reaction was started with the addition of 50 μL of 10 mM NADPH solution at the final concentration of 1 mM and carried out at 37 C. 50 μL of ultra-pure H2O was used instead of NADPH solution in the negative control.
Aliquots of 50 μL were taken from the reaction solution at 0 and 30 min. The reaction was stopped by the addition of 3 volumes of cold methanol with IS (200 nM imipramine, 200 nM labetalol and 2 μM ketoprofen) at the designated time points. Samples were centrifuged at 16,000 g for 10 minutes to precipitate protein. Aliquot of 100 μL of the supernatant was diluted by 100 μL ultra-pure H2O, and the mixture was used for LC/MS/MS analysis. All experiments were performed in duplicate.
Samples were analyzed using liquid chromatography-mass spectrometry. The LC system comprised a Shimadzu liquid chromatograph separation system equipped with degasser DGU-20A3, solvent delivery unit LC-20AD, system controller CBM-20A, column oven CTO-10ASVP and CTC Analytics HTC PAL System. Chromatographic conditions included a Phenomenex column, 5.0μ C18 (2.0×50 mm); a mobile phase of 0.1% formic acid in acetonitrile and 0.1% formic acid in water; an elution rate of 500 μL/min; column temperature 25 C; injection volume 10 μL. Mass spectrometric analysis was performed using an API 4000 instrument from AB Inc. (Canada) with an ESI interface. The data acquisition and control system were created using Analyst 1.5.1 software from ABI Inc. A turbo spray ion source and electrospray ionization were employed in a multiple reaction monitoring (MRM) scan. Additional parameters included: collision gas, 6 L/min; curtain gas, 30 L/min; nebulize gas, 50 L/min; auxiliary gas, 50 L/min; temperature, 500 C; ionspray voltage, +5500 v (positive MRM). Quadripoles Q1 and Q3 were set to 456.2 and 200.2, respectively; declustering potential (DP), entrance potential (EP), and collision cell entrance potential (CE) were set to 120, 10, and 55 v, respectively; collision cell exit potential (CXP) was 12 v.
All calculations were carried out using Microsoft Excel. Peak areas were determined from extracted ion chromatograms. The control compounds were included in the assay. Any value of the compounds that was not within the specified limits was rejected and the experiment was repeated. The reaction system without the cofactors was used to exclude the misleading factor that resulted from instability of chemical itself.

With `O=C(N[C@@H](CCCCN[C@@H]1C[C@H]1c1ccc(F)cc1)C(=O)N1CCS(=O)(=O)CC1)c1ccccc1` [Example 16, N—((S)-1-(1,1-dioxidothiomorpholino)-6-(((1R,2S)-2-(4-fluorophenyl)cyclopropyl)amino)-1-oxohexan-2-yl)benzamide] the IC50 [1] was under 1000 nM and the “% at 30 min, MLM” value [2] was “+ (+ is ≥20%)”.

With `O=C(N[C@@H](CCCCN[C@@H]1C[C@H]1c1ccccc1)C(=O)N1CCOCC1)c1ccccc1` [Example 6, N—((S)-1-morpholino-1-oxo-6-(((1R,2S)-2-phenylcyclopropyl)amino)hexan-2-yl)benzamide] the IC50 [1] was under 1000 nM and the “% at 30 min, MLM” value [2] was “+ (+ is ≥20%)”.

With `O=C(N[C@@H](CCCCN[C@@H]1C[C@H]1c1ccc(F)cc1)C(=O)N1CCCCC1)c1cnc[nH]1` [Example 23, N—((S)-6-((1R,2S)-2-(4-fluorophenyl)cyclopropylamino)-1-oxo-1-(piperidin-1-yl)hexan-2-yl)-1H-imidazole-5-carboxamide] the IC50 [1] was under 1000 nM.

With `O=C(N[C@@H](COCCN[C@@H]1C[C@H]1c1ccc(F)cc1)C(=O)N1CCOCC1)c1ccc(F)cc1` [Example 20, 4-fluoro-N—((S)-3-(2-(((1R,2S)-2-(4-fluorophenyl)cyclopropyl)amino)ethoxy)-1-morpholino-1-oxopropan-2-yl)benzamide] the “% at 30 min, MLM” value [2] was “− (− is <20%)”.

With `C[C@@]1(NCCCC[C@H](NC(=O)c2ccccc2)C(=O)N2CCN(S(C)(=O)=O)CC2)C[C@H]1c1ccc(F)cc1` [Example 8, N—((S)-6-(((1R,2S)-2-(4-fluorophenyl)-1-methylcyclopropyl)amino)-1-(4-(methylsulfonyl)piperazin-1-yl)-1-oxohexan-2-yl)benzamide] the IC50 [1] was over 1000 nM, the “% at 30 min, MLM” value [2] was “+ (+ is ≥20%)” and the “% at 30 min, MLM” value ([2]; numeric values of Table 2) was 65%.

For `CN1CCN(C(=O)[C@H](CCCC(=O)N[C@@H]2C[C@H]2c2ccc(F)cc2)NC(=O)c2ccc(F)cc2)CC1` [Example 24, 4-fluoro-N—((S)-6-((1R,2S)-2-(4-fluorophenyl)cyclopropylamino)-1-(4-methylpiperazin-1-yl)-1,6-dioxohexan-2-yl)benzamide], the “% at 30 min, MLM” value [2] was “+ (+ is ≥20%)”.

In the case of `O=C(N[C@@H](CCCCN[C@@H]1C[C@H]1c1ccc(F)cc1)C(=O)N1CCOCC1)c1ccccc1` [Example 11, N—((S)-6-(((1R,2S)-2-(4-fluorophenyl)cyclopropyl)amino)-1-morpholino-1-oxohexan-2-yl)benzamide], the IC50 [1] is reported as under 1000 nM and the “% at 30 min, MLM” value [2] is reported as “+ (+ is ≥20%)”.

In the case of `O=C(N[C@@H](CCCCN[C@@H]1C[C@H]1c1ccc(F)cc1)C(=O)N1CCCCC1)c1ccccn1` [Example 7, N-[(2S)-6-[[(1R,2S)-2-(4-fluorophenyl)cyclopropyl]amino]-1-oxo-1-(piperidin-1-yl)hexan-2-yl]pyridine-2-carboxamide], the IC50 [1] is reported as under 1000 nM and the “% at 30 min, MLM” value [2] is reported as “− (− is <20%)”.

With `CS(=O)(=O)N1CCN(C(=O)[C@H](CCCN[C@@H]2C[C@H]2c2ccc(F)cc2)NC(=O)c2ccc(F)cc2)CC1` [Example 29, 4-fluoro-N-[(2S)-5-[[(1R,2S)-2-(4-fluorophenyl)cyclopropyl]amino]-1-(4-methanesulfonylpiperazin-1-yl)-1-oxopentan-2-yl]benzamide] the “% at 30 min, MLM” value [2] was “− (− is <20%)”.

For `COc1ccc([C@@H]2C[C@H]2NC(=O)COC[C@H](NC(=O)c2ccc(F)cc2)C(=O)N2CCOCC2)cc1` [Example 25, 4-fluoro-N—((S)-3-(2-((1R,2S)-2-(4-methoxyphenyl)cyclopropylamino)-2-oxoethoxy)-1-morpholino-1-oxopropan-2-yl)benzamide], the “% at 30 min, MLM” value [2] was “+ (+ is ≥20%)”.

In the case of `O=C(N[C@@H](CCCCN[C@@H]1C[C@H]1c1ccccc1)C(=O)N1CCCCC1)c1ccccc1` [Example 2, N—((S)-1-oxo-6-(((1R,2S)-2-phenylcyclopropyl)amino)-1-(piperidin-1-yl)hexan-2-yl)benzamide], the IC50 [1] is reported as under 1000 nM and the “% at 30 min, MLM” value [2] is reported as “− (− is <20%)”.

For `COc1ccc([C@@H]2C[C@H]2NC(=O)CCC[C@H](NC(=O)c2ccc(F)cc2)C(=O)N2CCN(C)CC2)cc1` [Example 26, 4-fluoro-N—((S)-6-((1R,2S)-2-(4-methoxyphenyl)cyclopropylamino)-1-(4-methylpiperazin-1-yl)-1,6-dioxohexan-2-yl)benzamide], the “% at 30 min, MLM” value [2] was “+ (+ is ≥20%)”.

In the case of `C[C@@]1(NCCS(=O)(=O)C[C@H](NC(=O)c2ccc(F)cc2)C(=O)N2CCOCC2)C[C@H]1c1ccc(F)cc1` [Example 17, 4-fluoro-N—((R)-3-((2-(((1R,2S)-2-(4-fluorophenyl)-1-methylcyclopropyl)amino)ethyl)sulfonyl)-1-morpholino-1-oxopropan-2-yl)benzamide], the IC50 [1] is reported as under 1000 nM, the “% at 30 min, MLM” value [2] is reported as “− (− is <20%)” and the “% at 30 min, MLM” value ([2]; numeric values of Table 2) is reported as 2.7%.

In the case of `O=C(N[C@@H](CCCCN[C@@H]1C[C@H]1c1ccc(F)cc1)C(=O)N1CCCCC1)c1ccc(C(F)(F)F)cc1` [Example 14, N—((S)-6-(((1R,2S)-2-(4-fluorophenyl)cyclopropyl)amino)-1-oxo-1-(piperidin-1-yl)hexan-2-yl)-4-(trifluoromethyl)benzamide], the IC50 [1] is reported as under 1000 nM and the “% at 30 min, MLM” value [2] is reported as “− (− is <20%)”.

With `CN1CCN(C(=O)[C@H](CCCCN[C@@H]2C[C@H]2c2ccccc2)NC(=O)c2ccccc2)CC1` [Example 4, N—((S)-1-(4-methylpiperazin-1-yl)-1-oxo-6-(((1R,2S)-2-phenylcyclopropyl)amino)hexan-2-yl)benzamide] the IC50 [1] was under 1000 nM and the “% at 30 min, MLM” value [2] was “+ (+ is ≥20%)”.

For `O=C(N[C@@H](CCCCN[C@@H]1C[C@H]1c1ccc(F)cc1)C(=O)N1CCCCC1)c1ccc(-c2ccccc2)cc1` [Example 15, N—((S)-6-(((1R,2S)-2-(4-fluorophenyl)cyclopropyl)amino)-1-oxo-1-(piperidin-1-yl)hexan-2-yl)-[1,1′-biphenyl]-4-carboxamide], the “% at 30 min, MLM” value [2] was “− (− is <20%)”.

In the case of `O=C(N[C@@H](CCCCN[C@@H]1C[C@H]1c1ccc(F)cc1)C(=O)N1CCCCC1)c1ccc(F)cc1` [Example 13, 4-fluoro-N—((S)-6-(((1R,2S)-2-(4-fluorophenyl)cyclopropyl)amino)-1-oxo-1-(piperidin-1-yl)hexan-2-yl)], the IC50 [1] is reported as under 1000 nM and the “% at 30 min, MLM” value [2] is reported as “− (− is <20%)”.

For `COc1ccc([C@@H]2C[C@H]2NCCS(=O)(=O)C[C@H](NC(=O)c2ccc(F)cc2)C(=O)N2CCOCC2)cc1` [Example 18, 4-fluoro-N—((R)-3-((2-(((1R,2S)-2-(4-methoxyphenyl)cyclopropyl)amino)ethyl)sulfonyl)-1-morpholino-1-oxopropan-2-yl)benzamide], the IC50 [1] was under 1000 nM and the “% at 30 min, MLM” value [2] was “− (− is <20%)”.

In the case of `CN(C(=O)c1ccccc1)[C@@H](CCCCN[C@]1(C)C[C@H]1c1ccc(F)cc1)C(=O)N1CCN(S(C)(=O)=O)CC1` [Example 27, N-[(2S)-6-[[(1R,2S)-2-(4-fluorophenyl)-1-methylcyclopropyl]amino]-1-(4-methanesulfonylpiperazin-1-yl)-1-oxohexan-2-yl]-N-methylbenzamide], the IC50 [1] is reported as under 1000 nM and the “% at 30 min, MLM” value [2] is reported as “+ (+ is ≥20%)”.

Work on `CCN(CC)C(=O)[C@H](CCCCN[C@@H]1C[C@H]1c1ccccc1)NC(=O)c1ccccc1` [Example 5] yielded an IC50 [1] of under 1000 nM.

For `O=C(CN[C@@H]1C[C@H]1c1ccc(F)cc1)NC[C@H](NC(=O)c1ccc(F)cc1)C(=O)N1CCOCC1` [Example 21, 4-fluoro-N—((S)-3-(2-(((1R,2S)-2-(4-fluorophenyl)cyclopropyl)amino)acetamido)-1-morpholino-1-oxopropan-2-yl)benzamide], the “% at 30 min, MLM” value [2] was “− (− is <20%)”.

In the case of `O=C(N[C@@H](CCCCN[C@@H]1C[C@H]1c1ccccc1)C(=O)N1CCCC1)c1ccccc1` [Example 1, N—((S)-1-oxo-6-(((1R,2S)-2-phenylcyclopropyl)amino)-1-(pyrrolidin-1-yl)hexan-2-yl)benzamide], the IC50 [1] is reported as under 1000 nM.
